Experimental data reported in patent US20110087153A1, “Transdermal Methods And Systems For The Delivery Of Rizatriptan” (priority 2009, published 2011).
Each block holds one compound with its values, some of them ahead of it.

Columns and labels:
[1] = cited from earlier work
[2] = Permeation of compound through human cadaver skin (iontophoresis, drug solutions); assay type: in vitro ADME; details: 2 mAmp/cm^2, 2% zolmitriptan, 4% rizatriptan, 4% sumatriptan solutions (FIG. 5)
Procedure: Human cadaver skin was obtained from Allosource. The skin was maintained at −70° C. prior to use. A portion of skin was thawed in 0.9% NaCl solution for 30 minutes. The skin was towel dried and cut into 2 cm square sections. The skin was mounted with the epidermis side toward the donor chamber in the Permeagear 0.9 cm diameter side-by-side diffusion cells.
A solution of 2% zolmitriptan was made by dissolving zolmitriptan in 0.1 N HCl. A 4% sumatriptan solution was made by dissolving sumatriptan in 0.1% NaCl. The 4% rizatriptan solution was made by dissolving the rizatriptan in 0.1% NaCl
Three cells were dosed with 2% zolmitriptan, three cells were dosed with 4% rizatriptan, and two cells were dosed with 4% sumatriptan. Normal saline solution was used as the receiver solution. The cells were clamped at 1.27 mAmp (2 mAmp/cm^2). 2 ml of each receiver compartment was sampled every 30 minutes and replaced with normal saline solution. One cell of the rizatriptan iontophoresis and one cell of sumatriptan iontophoresis were lost during the study due to holes in the skin.
Each 2 ml sample was diluted 1 to 100 with water. Zolmitriptan and sumatriptan were assayed by UV at 222 nm and 282 nm respectively. Rizatriptan was assay by HPLC as previously described.

[3] = Permeation through dialysis membrane (iontophoresis side-by-side diffusion cells); assay type: in vitro ADME
Procedure: Ionotophoresis side-by side diffusion cells with 9 mm diameter opening were obtained from PermeGear. The current clamps with PC control were provided by NuPathe, Inc. The temperature controller was from Henke. 2.0 mm diameter Zinc and Silver were obtained from Alpha Aesar. Sumatriptan, Zolmitriptan and Rizatriptan wore provided by NuPathe. Sodium chloride was obtained from Fisher Scientific,
A donor solution of 4% sumatriptan succinate in 0.9% NaCl was prepared. The receiver solution was 0.9% Sodium chloride in water. A Millipore 1000 mw cutoff membrane were used as the membrane. The glossy side of the membrane faced the donor compartment. The volume of the donor and receiver solution was 3.0 ml. 0.5 mm zinc wire was placed in the donor compartment and 2.0 mm silver wire was placed in the receiver compartment. The temperature of the apparatus was maintained at 33° C.
Ketoprofen was obtained from Spectrum Chemical. A 2% ketoprofen donor solution was made by dissolving in 0.1 N NaOH.
Three cells were clamped at 2 mAmps/cm^2 (1.27 mAmp/cell), 3 cells were clamped at 2 mAmp/cm^2 with the electrodes reversed, 3 cells (the control cells) were not clamped.
At each sampling point 2 ml was withdrawn from the receiver compartment and was replaced with 0.9% Sodium Chloride. Each sample was diluted using 0.9% NaCl to be within the standard curve. Absorbance was measured using a UV spectrophotometer with a 1 cm quartz cuvette at 282 nm. […]

[4] = Iontophoresis properties (charge and molecular weight analysis); assay type: physicochemical
Description: This is because the diffusion and permeation through a hydrophilic membrane are dependent on molecular weight, radius of the molecule and the ionic drag the molecule has with the membrane.

[5] = Permeation of formulated product through human cadaver skin (iontophoresis, gel formulations); assay type: in vitro ADME; details: for Lag time: human cadaver skin, gel with 3.4% lauric acid, 2 mAmp/cm^2
Procedure: Brij 30 (Laureth-4) and adipic acid were obtained from Fisher Scientific. Eudragit E*PO was obtained from Evonik. Human cadaver skin was thawed in 0.9% NaCl for 30 minutes and patted dry. The skin was cut into 2 cm square sections. The epidermis was placed towards the donor compartment of a […] PermeGear side-by-side diffusion cell. The donor gel was placed in the donor compartment and 3 ml of normal saline solution was placed in the receiver compartment. Three cells were dosed with zolmitriptan with 3.4% lauric acid, three cells were dosed with rizatriptan with 3.4% lauric acid and two cells were dosed with rizatriptan with 3.4% Brij 30. The cells were clamped at 1.27 mAmp (2 mAmp/cm^2). Two ml of each receiver compartment was sampled every 30 minutes and replaced with normal saline solution. Each 2 ml sample was diluted 1 to 100 with water. Zolmitriptan and sumatriptan were assayed by UV at 222 nm Rizatriptan was assayed by HPLC as previously described. Additional analysis of the permeation data was conducted to find the amount of time to dose 5 mg of drug based on reasonable patch areas, and is shown in Table 4. […] However, as was observed by the previous permeation data, zolmitriptan would need a total of 43 minutes when the lag-time is considered compared to 19 minutes for rizatriptan when the lag time is considered.

[6] = Oxidation stability for rizatriptan under 2 mA current; assay type: physicochemical; details: for Rizatriptan concentration after exposure to 2 mAmp current: 0.9% NaCl
Procedure: A drug stock solution was made by dissolving 2.8 mg of rizatriptan benzoate in 0.9% NaCl to a volume of 50 mL. The working standard was prepared by diluting 0.5 ml of the stock solution to 10 ml with 0.9% NaCl. This produced a final concentration of 2.8 mcg/ml, for the working standard.
A solution was made by dissolving 0.5000 g of rizatriptan benzoate in 0.9% NaCl to a final volume of 50 mL. A 1 ml sample of this solution was kept for future assay. The remaining solution was placed in a beaker covered with parafilm Zinc wire (Cathode) and silver wire (anode) were passed through the parafilm and placed in the drug solution. Current of 2 mA was passed through the solution. Samples of 1 mL each were withdrawn every 30 minutes for 5.5 hours.
A 0.1 mL volume from each sample was diluted with 15 mL of 0.9% NaCl. A 1 ml volume of this dilution was then further diluted to 10 ml using 0.9% NaCl. Similarly, a 0.1 ml volume of the initial solution was diluted with 15 mL of 0.9% NaCl. A 1 ml volume of this dilution was then diluted to 10 ml with 0.9% NaCl.

[7] = 1000 mwco dialysis membrane, 33° C., UV assay
[8] = 1000 mwco dialysis membrane, 33° C., UV assay, listed as ketoprofen

Compound: CCCCCCCCCCCC(=O)O [Lauric acid]
- pKa [1]: around 4.9

Compound: CC(C(=O)O)c1cccc(C(=O)c2ccccc2)c1 (centres unmarked) [Ketoprofen]
- Flux, Iontophoresis (2 mAmp/cm^2) [3, 7]: 8.24 mcg/cm^2/min
- Flux, Passive diffusion (No current) [3, 7]: 7.41 mcg/cm^2/min
- Flux, Reversed Electrodes (Current reversed at 2 mAmp/cm^2) [3, 7]: 11.66 mcg/cm^2/min
- Flux, Iontophoresis (2 mAmp/cm^2) [3, 8]: less than the passive diffusion
- Flux, Passive diffusion (No current) [3, 8]: substantial
- Flux, Reversed Electrodes (Current reversed at 2 mAmp/cm^2) [3, 8]: greatest flux
- Ratio of Iontophoresis to Passive Diffusion ([3]; 1000 mwco dialysis membrane, UV assay): 1.6

Compound: CNS(=O)(=O)Cc1ccc2[nH]cc(CCN(C)C)c2c1 [Sumatriptan]
- Flux, Passive diffusion (No current) ([3]; not told): 0.58 mcg/cm^2/min
- Flux, Reversed Electrodes (Current reversed at 2 mAmp/cm^2) ([3]; not told): 0.11 mcg/cm^2/min
- Ionizable Nitrogens [4]: 2
- MW/charge Ratio [4]: 147.7

Second part, led by results:

- Flux, Passive diffusion (No current) ([3]; not told): 3.32 mcg/cm^2/min
- Flux, Reversed Electrodes (Current reversed at 2 mAmp/cm^2) ([3]; not told): 0.05 mcg/cm^2/min
- Ratio of Iontophoresis to Passive Diffusion ([3]; not told): 11.5
- Ionizable Nitrogens [4]: 3
- MW/charge Ratio [4]: 92.8
- Lag time [5]: 20 min
- Total time to deliver 5 mg when the lag time is considered [5]: 43 min
Compound: CN(C)CCc1c[nH]c2ccc(C[C@H]3COC(=O)N3)cc12 [Zolmitriptan]
- Skin permeation by iontophoresis [2]: very comparable to the permeation of sumatriptan via iontophoresis

- Ionizable Nitrogens [4]: 3
- MW/charge Ratio [4]: 89.8
- Rizatriptan concentration after exposure to 2 mAmp current ([6]; 0 min): 10.000 mg/mL
- Exposure time after which degradation becomes significant ([6]; 2 mA current): > 4 h
- Rate of degradation ([6]; 2 mA current, regression with all data): ~16 µg/mL/min
- Rizatriptan concentration after exposure to 2 mAmp current ([6]; 30 min): 10.041 mg/mL
- Rizatriptan concentration after exposure to 2 mAmp current ([6]; 60 min): 9.829 mg/mL
- Rizatriptan concentration after exposure to 2 mAmp current ([6]; 90 min): 9.909 mg/mL
- Rizatriptan concentration after exposure to 2 mAmp current ([6]; 120 min): 9.782 mg/mL
- Rizatriptan concentration after exposure to 2 mAmp current ([6]; 150 min): 9.942 mg/mL
- Rizatriptan concentration after exposure to 2 mAmp current ([6]; 180 min): 9.875 mg/mL
- Rizatriptan concentration after exposure to 2 mAmp current ([6]; 210 min): 9.801 mg/mL
- Rizatriptan concentration after exposure to 2 mAmp current ([6]; 240 min): 9.758 mg/mL
- Rizatriptan concentration after exposure to 2 mAmp current ([6]; 270 min): 9.963 mg/mL
- Rizatriptan concentration after exposure to 2 mAmp current ([6]; 300 min): 9.216 mg/mL
- Rizatriptan concentration after exposure to 2 mAmp current ([6]; 330 min): 9.389 mg/mL
- Degradation ([6]; during the 5.5 hour exposure to 2 mA current): approximately 7%
- Lag time [5]: 9 min
- Total time to deliver 5 mg when the lag time is considered [5]: 19 min
- Time in which a dose (5 mg) can be delivered ([5]; suggested by the results of the formulation studies): about 45 minutes
Compound: CN(C)CCc1c[nH]c2ccc(Cn3cncn3)cc12 [Rizatriptan]
- Skin permeation by iontophoresis [2]: greater skin permeation than sumatriptan and zolmitriptan
